This is an account of results in patent publication US9409884B2 (Rigel Pharmaceuticals, Inc., priority 2012, dated 2016).

As usually defined, the EC50 is the concentration that produces a half-maximal response. A high value points to lower potency in that assay.

One experiment deals with AMPK. Briefly: AMPK activation, enzyme-linked immunosorbent assay. The experiment is classed as biochemical. To be noted: Table 13, compounds of Table 6. The essentials: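 AMPK activation by test compounds was measured by enzyme-linked immunosorbent assay.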
Consider `CS(=O)(=O)c1ccc(CN2CCN(C(=O)c3ccc4oc(C(=O)NC5CCN(Cc6ccc(OC(F)(F)F)c(Cl)c6)CC5)cc4c3)CC2)cc1` [Compound 6-158, N-(1-(3-chloro-4-(trifluoromethoxy)benzyl)piperidin-4-yl)-5-(4-(4-(methylsulfonyl)benzyl)piperazine-1-carbonyl) benzofuran-2-carboxamide], for which the 50% effective concentration (EC50) was 0.1 to 1 µM. Molecule `CS(=O)(=O)c1ccc(CN2CCN(C(=O)c3ccc4oc(C(=O)NC5CCN(Cc6ccc(S(=O)(=O)N7CCCC7)cc6)CC5)cc4c3)CC2)cc1` [Compound 6-159, 5-(4-(4-(methylsulfonyl)benzyl)piperazine-1-carbonyl)-N-(1-(4-(pyrrolidin-1-ylsulfonyl)benzyl)piperidin-4-yl)benzofuran-2-carboxamide] registered an EC50 of 1 to 10 µM. Consider `COc1ccc(CN2CCC(NC(=O)c3cc4cc(C(=O)N5CCN(Cc6ccc(S(=O)(=O)N7CCCC7)cc6)CC5)ccc4o3)CC2)cc1F` [Compound 6-160, N-(1-(3-fluoro-4-methoxybenzyl)piperidin-4-yl)-5-(4-(4-(pyrrolidin-1-ylsulfonyl)benzyl)piperazine-1-carbonyl)benzofuran-2 - carboxamide], for which the EC50 is below 0.1 µM. Turning to `CCNS(=O)(=O)c1ccc(CN2CCN(C(=O)c3ccc4oc(C(=O)NC5CCN(Cc6ccc(OC)c(F)c6)CC5)cc4c3)CC2)cc1` [Compound 6-161, 5-(4-(4-(N-ethylsulfamoyl)benzyl)piperazine-1-carbonyl)-N-(1-(3-fluoro-4-methoxybenzyl)piperidin-4-yl)benzofuran-2-carboxamide], the EC50 is below 0.1 µM. As for `COc1ccc(CN2CCC(NC(=O)c3cc4cc(C(=O)N5CCN(Cc6ccc(S(=O)(=O)N(C)C)cc6)CC5)ccc4o3)CC2)cc1F` [Compound 6-162], the EC50 is below 0.1 µM. On the same count and under the same terms, with `COc1ccc(CN2CCC(NC(=O)c3cc4cc(C(=O)N5CCN(Cc6ccc(S(=O)(=O)N7CCOCC7)cc6)CC5)ccc4o3)CC2)cc1F` [Compound 6-163, N-(1-(3-fluoro-4-methoxybenzyl)piperidin-4-yl)-5-(4-(4-(morpholinosulfonyl)benzyl)piperazine-1-arbonyl) benzofuran-2-carboxamide] the figure was below 0.1 µM; with `COc1ccc(CN2CCC(NC(=O)c3cc4cc(C(=O)N5CCC(Oc6ccc(S(C)(=O)=O)cc6)CC5)ccc4o3)CC2)cc1` [Compound 6-164, N-(1-(4-methoxybenzyl)piperidin-4-yl)-5-(4-(4-(methylsulfonyl)phenoxy)piperidine-1-carbonyl) benzofuran-2-carboxamide], below 0.1 µM.

Staying with this experiment, now noted: Table 14, compounds of Table 7.
Consider `CS(=O)(=O)c1ccc(OC2CCN(C(=O)c3ccc(C(=O)Nc4ccc(Oc5ccc(S(F)(F)(F)(F)F)cc5)nc4)cn3)CC2)cc1` [Compound 7-1, 6-(4-(4-(methylsulfonyl)phenoxy)piperidine-1-carbonyl)-N-(6-(4-(pentafluorosulfanyl)phenoxy)pyridin-3-yl)nicotinamide], for which the EC50 was in the range of 1 to 10 µM. The same measure, in the same setting: the value for `CS(=O)(=O)c1ccc(OC2CCN(C(=O)c3ccc(C(=O)Nc4ccc(Oc5ccc(S(F)(F)(F)(F)F)cc5)nc4)nc3)CC2)cc1` [Compound 7-2, 5-(4-(4-(methylsulfonyl)phenoxy)piperidine-1-carbonyl)-N-(6-(4-(pentafluorosulfanyl)phenoxy)pyridin-3-yl)picolinamide] was below 1 µM; that for `COc1ccc(C(=O)C2CCN(C(=O)c3ccc(C(=O)Nc4ccc(Oc5ccc(S(F)(F)(F)(F)F)cc5)nc4)nc3)CC2)cc1` [Compound 7-3, 5-(4-(4-methoxybenzoyl)piperidine-1-carbonyl)-N-(6-(4-(pentafluorosulfanyl)phenoxy)pyridin-3-yl)picolinamide] was below 1 µM. On the same count and under the same terms, the value for `O=C(Nc1ccc(Oc2ccc(S(F)(F)(F)(F)F)cc2)nc1)c1ccc(C(=O)N2CCC(C(=O)c3ccc(N4CCCC4)cc3)CC2)cn1` [Compound 7-4, 5-(4-(4-(pyrrolidin-1-yl)benzoyl)piperidine-1-carbonyl)-N-(6-(4-(pentafluorosulfanyl)phenoxy)pyridin-3-yl)picolinamide] was below 1 µM. For `N#Cc1ccc(OC2CCN(C(=O)c3ccc(C(=O)Nc4ccc(Oc5ccc(S(F)(F)(F)(F)F)cc5)nc4)nc3)CC2)cc1` [Compound 7-5, 5-(4-(4-cyanophenoxy)piperidine-1-carbonyl)-N-(6-(4-(pentafluorosulfanyl)phenoxy)pyridin-3-yl)picolinamide], the EC50 was below 1 µM. Consider `CC(C)S(=O)(=O)c1ccc(N2CCN(C(=O)c3ccc(C(=O)Nc4ccc(Oc5ccc(S(F)(F)(F)(F)F)cc5)nc4)nc3)CC2)cc1` [Compound 7-6, 5-(4-(4-(isopropylsulfonyl)phenyl)piperazine-1-carbonyl)-N-(6-(4-(pentafluorosulfanyl)phenoxy)pyridin-3-yl)picolinamide], for which the EC50 is below 1 µM. Consider `COc1ccc(C(=O)C2CCCN(C(=O)c3ccc(C(=O)NC4CCN(Cc5ccc(C#N)cc5)CC4)cn3)C2)cc1` (stereo not drawn) [Compound 7-7, N-(1-(4-cyanobenzyl)piperidin-4-yl)-6-(3-(4-methoxybenzoyl)piperidine-1-carbonyl)nicotinamide], for which the EC50 was in the range of 1 to 10 µM. Same read-out and setting: with `COc1ccc(CN2CCC(NC(=O)c3ccc(C(=O)N4CCCC(C(=O)c5ccc(OC)cc5)C4)nc3)CC2)cc1` (stereo not drawn) [Compound 7-8, 6-(3-(4-methoxybenzoyl)piperidine-1-carbonyl)-N-(1-(4-methoxybenzyl)piperidin-4-yl)nicotinamide] the figure was 1 to 10 µM; with `COc1ccc(C(=O)C2CCCN(C(=O)c3ccc(C(=O)NC4CCN(Cc5ccc(F)cc5)CC4)cn3)C2)cc1` (stereo not drawn) [Compound 7-9, N-(1-(4-fluorobenzyl)piperidin-4-yl)-6-(3-(4-methoxybenzoyl)piperidine-1-carbonyl)nicotinamide], 1 to 10 µM; with `COc1ccc(C(=O)C2CCCN(C(=O)c3ccc(C(=O)Nc4ccc(Oc5ccc(F)cc5)nc4)cn3)C2)cc1` (stereo not drawn) [Compound 7-10, N-(6-(4-fluorophenoxy)pyridin-3-yl)-6-(3-(4-methoxybenzoyl)piperidine-1-carbonyl)nicotinamide], 1 to 10 µM.

Take `COc1ccc(C(=O)C2CCCN(C(=O)c3ccc(C(=O)Nc4ccc(Oc5ccc(C(C)=O)cc5)nc4)cn3)C2)cc1` (stereo not drawn) [Compound 7-11, N-(6-(4-acetylphenoxy)pyridin-3-yl)-6-(3-(4-methoxybenzoyl)piperidine-1-carbonyl)nicotinamide]: the EC50 lay within 1 to 10 µM.

With `Cc1cc(OC2CCN(C(=O)c3ccc(C(=O)NC4CCN(Cc5ccc(C#N)cc5)CC4)cn3)CC2)ccc1S(C)(=O)=O` [Compound 7-13, N-(1-(4-cyanobenzyl)piperidin-4-yl)-6-(4-(3-methyl-4-(methylsulfonyl)phenoxy)piperidine-1-carbonyl) nicotinamide], the EC50 lay within 1 to 10 µM.

Consider `Cc1cc(OC2CCN(C(=O)c3ccc(C(=O)NC4CCN(Cc5ccc(OC(F)(F)F)cc5)CC4)cn3)CC2)ccc1S(C)(=O)=O` [Compound 7-14, 6-(4-(3-methyl-4-(methylsulfonyl)phenoxy)piperidine-1-carbonyl)-N-(1-(4-(trifluoromethoxy)benzyl)piperidin-4-yl)nicotinamide], for which the EC50 was 1 to 10 µM. Same read-out and setting: with `Cc1cc(OC2CCN(C(=O)c3ccc(C(=O)Nc4ccc(Oc5ccc(C#N)cc5)nc4)cn3)CC2)ccc1S(C)(=O)=O` [Compound 7-15, N-(6-(4-cyanophenoxy)pyridin-3-yl)-6-(4-(3-methyl-4-(methylsulfonyl)phenoxy)piperidine-1-carbonyl) nicotinamide] the figure was 1 to 10 µM.
